# Source: US20030216416A1, “Novel crystalline of n-[4-[2-(2-amino-4,7-dihydro-4oxo-3h-pyrrolo[2,3-d]pyrimidin-5-yl)ethyl]benzoyl]-l-glutamic acid and process therefor” (priority 2002, published 2003)
# Experiments:
# [1] = Stability study: total related substances of crystalline form lots on storage
# [2] = Stability study: solvents (water) content of crystalline form lots on storage
# [3] = heptahydrate lot stored at 5° C.
# [4] = heptahydrate lot, 25° C./60% relative humidity and room temperature/uncontrolled humidity
# [5] = 2.5 hydrate lots stored at 5° C.
# [6] = accelerated conditions 30° C., 0 months
# [7] = accelerated conditions 30° C., 1 month
# [8] = accelerated conditions 30° C., 2 months
# [9] = accelerated conditions 30° C., 3 months
# [10] = accelerated conditions 30° C., 6 months
# [11] = stored at 5° C., 0 months, lots A-C water and ethanol, lot D water only
# [12] = accelerated conditions 25° C., 60% relative humidity
smiles,measurement,setting,value
"Nc1nc2[nH]cc(CCc3ccc(C(=O)N[C@@H](CCC(=O)[O-])C(=O)[O-])cc3)c2c(=O)[nH]1.[Na+].[Na+] [Heptahydrate Lot, disodium N-[4-[2-(2-amino-4,7-dihydro-4-oxo-3H-pyrrolo[2,3-d]-pyrimidin-5-yl)ethyl]benzoyl]-L-glutamic acid salt]",Total Related Substances Results,"[1]; 5 C., 0 mo.",0.41%
same,Total Related Substances Results,"[1]; 5 C., 0.5 mo.",0.42%
same,Total Related Substances Results,"[1]; 5 C., 1 mo.",0.43%
same,Total Related Substances Results,"[1]; 5 C., 2 mo.",0.45%
same,Total Related Substances Results,"[1]; 5 C., 3 mo.",0.42%
same,Total Related Substances Results,"[1]; 5 C., 6 mo.",0.42%
same,Total Related Substances Results,"[1]; 5 C., 9 mo.",0.40%
same,Total Related Substances Results,"[1]; 5 C., 12 mo.",0.42%
same,Total Related Substances Results,"[1]; 25 C./60% RH, 0 mo.",0.41%
same,Total Related Substances Results,"[1]; 25 C./60% RH, 0.25 mo.",0.40%
same,Total Related Substances Results,"[1]; 25 C./60% RH, 0.5 mo.",0.44%
same,Total Related Substances Results,"[1]; 25 C./60% RH, 0.75 mo.",0.39%
same,Total Related Substances Results,"[1]; 25 C./60% RH, 1 mo.",0.43%
same,Total Related Substances Results,"[1]; 25 C./60% RH, 3 mo.",0.42%
same,Total Related Substances Results,"[1]; 25 C./60% RH, 6 mo.",0.42%
same,Total Related Substances Results,"[1]; 25 C./60% RH, 12 mo.",0.39%
same,Total Related Substances Results,"[1]; RT/uncontrolled, 0 mo.",0.41%
same,Total Related Substances Results,"[1]; RT/uncontrolled, 0.25 mo.",0.40%
same,Total Related Substances Results,"[1]; RT/uncontrolled, 0.5 mo.",0.43%
same,Total Related Substances Results,"[1]; RT/uncontrolled, 0.75 mo.",0.41%
same,Total Related Substances Results,"[1]; RT/uncontrolled, 1 mo.",0.43%
same,Total Related Substances Results,"[1]; RT/uncontrolled, 2 mo.",0.44%
same,Total Related Substances Results,"[1]; RT/uncontrolled, 3 mo.",0.42%
same,change in the percent total related substances over time,[1]; [3],did not change significantly over time
same,change in the percent total related substances over time,[1]; heptahydrate lot stored at accelerated conditions,did not change significantly over time
same,Solvents (Water) Results,"[2]; 5° C., time 0",21.0%
same,Solvents (Water) Results,"[2]; 5° C., time 0.5",21.0%
same,Solvents (Water) Results,"[2]; 5° C., time 1",20.6%
same,Solvents (Water) Results,"[2]; 5° C., time 2",21.1%
same,Solvents (Water) Results,"[2]; 5° C., time 3",21.3%
same,Solvents (Water) Results,"[2]; 5° C., time 6",21.1%
same,Solvents (Water) Results,"[2]; 5° C., time 9",21.1%
same,Solvents (Water) Results,"[2]; 5° C., time 12",21.9%
same,Solvents (Water) Results,"[2]; 25° C./60% RH, time 0",21.0%
same,Solvents (Water) Results,"[2]; 25° C./60% RH, time 0.25",21.1%
same,Solvents (Water) Results,"[2]; 25° C./60% RH, time 0.5",21.1%
same,Solvents (Water) Results,"[2]; 25° C./60% RH, time 0.75",20.1%
same,Solvents (Water) Results,"[2]; 25° C./60% RH, time 1",20.1%
same,Solvents (Water) Results,"[2]; 25° C./60% RH, time 3",20.7%
same,Solvents (Water) Results,"[2]; 25° C./60% RH, time 6",21.3%
same,Solvents (Water) Results,"[2]; 25° C./60% RH, time 12",21.7%
same,Solvents (Water) Results,"[2]; RT/uncontrolled RH, time 0",21.0%
same,Solvents (Water) Results,"[2]; RT/uncontrolled RH, time 0.25",21.3%
same,Solvents (Water) Results,"[2]; RT/uncontrolled RH, time 0.5",20.8%
same,Solvents (Water) Results,"[2]; RT/uncontrolled RH, time 0.75",20.6%
same,Solvents (Water) Results,"[2]; RT/uncontrolled RH, time 1",20.6%
same,Solvents (Water) Results,"[2]; RT/uncontrolled RH, time 2",21.1%
same,Solvents (Water) Results,"[2]; RT/uncontrolled RH, time 3",21.1%
same,change in water content over time,[2]; [3],does not change significantly over time
same,water content,[2]; [3],approximately 21%
same,change in water content over time,[2]; [4],does not change significantly over time
same,water content,[2]; [4],approximately 21%
"Nc1nc2[nH]cc(CCc3ccc(C(=O)N[C@@H](CCC(=O)O)C(=O)O)cc3)c2c(=O)[nH]1 [Lot A, pemetrexed disodium]",change in the percent total related substances over time,[1]; [5],did not change significantly over time
same,change in the percent total related substances over time,[1]; accelerated conditions 30° C.,did change significantly over time
same,Total Related Substances Results,[1]; [6],0.24% of Total
same,Total Related Substances Results,[1]; [7],0.35% of Total
same,Total Related Substances Results,[1]; [8],0.41% of Total
same,Total Related Substances Results,[1]; [9],0.6% of Total
same,Total Related Substances Results,[1]; [10],1.1% of Total
same,Total Related Substances Results,"[1]; stored at 5° C., 0 months",0.24% of Total
same,Total Related Substances Results,"[1]; stored at 5° C., 3 months",0.26% of Total
same,Total Related Substances Results,"[1]; stored at 5° C., 6 months",0.27% of Total
same,Total Related Substances Results,"[1]; stored at 5° C., 12 months",0.28% of Total
same,Total Related Substances Results,"[1]; stored at 5° C., 18 months",0.4% of Total
same,Total Related Substances Results,"[1]; stored at 5° C., 24 months",0.4% of Total
same,Solvents Results,[2]; [6],10.2% of Total
same,Solvents Results,[2]; [7],10.9% of Total
same,Solvents Results,[2]; [8],10.6% of Total
same,Solvents Results,[2]; [9],10.7% of Total
same,Solvents Results,[2]; [10],9.3% of Total
same,Solvents Results,[2]; [11],10.2% of Total
same,Solvents Results,"[2]; stored at 5° C., 3 months",22.0% of Total
same,Solvents Results,"[2]; stored at 5° C., 6 months",21.1% of Total
same,Solvents Results,"[2]; stored at 5° C., 12 months",21.5% of Total
same,Solvents Results,"[2]; stored at 5° C., 18 months",22.3% of Total
same,Solvents Results,"[2]; stored at 5° C., 24 months",21.1% of Total
"Nc1nc2[nH]cc(CCc3ccc(C(=O)N[C@@H](CCC(=O)O)C(=O)O)cc3)c2c(=O)[nH]1 [Lot B, pemetrexed disodium]",change in the percent total related substances over time,[1]; [5],did not change significantly over time
same,change in the percent total related substances over time,[1]; accelerated conditions 30° C.,did change significantly over time
same,Total Related Substances Results,[1]; [6],0.4% of Total
same,Total Related Substances Results,[1]; [7],0.4% of Total
same,Total Related Substances Results,[1]; [8],0.7% of Total
same,Total Related Substances Results,[1]; [9],0.6% of Total
same,Total Related Substances Results,[1]; [10],1.2% of Total
same,Total Related Substances Results,"[1]; stored at 5° C., 0 months",0.4% of Total
same,Total Related Substances Results,"[1]; stored at 5° C., 3 months",0.3% of Total
same,Total Related Substances Results,"[1]; stored at 5° C., 6 months",0.5% of Total
same,Total Related Substances Results,"[1]; stored at 5° C., 12 months",0.4% of Total
same,Solvents Results,[2]; [6],11.0% of Total
same,Solvents Results,[2]; [7],15.5% of Total
same,Solvents Results,[2]; [8],12.9% of Total
same,Solvents Results,[2]; [9],11.5% of Total
same,Solvents Results,[2]; [10],11.2% of Total
same,Solvents Results,[2]; [11],11.0% of Total
same,Solvents Results,"[2]; stored at 5° C., 3 months",21.0% of Total
same,Solvents Results,"[2]; stored at 5° C., 6 months",21.1% of Total
same,Solvents Results,"[2]; stored at 5° C., 12 months",21.0% of Total
"Nc1nc2[nH]cc(CCc3ccc(C(=O)N[C@@H](CCC(=O)O)C(=O)O)cc3)c2c(=O)[nH]1 [Lot C, pemetrexed disodium]",change in the percent total related substances over time,[1]; [5],did increase somewhat over time
same,change in the percent total related substances over time,[1]; accelerated conditions 30° C.,did change significantly over time
same,Total Related Substances Results,[1]; [6],0.38% of Total
same,Total Related Substances Results,[1]; [7],0.6% of Total
same,Total Related Substances Results,[1]; [8],0.76% of Total
same,Total Related Substances Results,[1]; [9],0.79% of Total
same,Total Related Substances Results,[1]; [10],1.33% of Total
same,Total Related Substances Results,"[1]; stored at 5° C., 0 months",0.38% of Total
same,Total Related Substances Results,"[1]; stored at 5° C., 3 months",0.79% of Total
same,Total Related Substances Results,"[1]; stored at 5° C., 6 months",0.79% of Total
same,Total Related Substances Results,"[1]; stored at 5° C., 12 months",0.51% of Total
same,Total Related Substances Results,"[1]; stored at 5° C., 18 months",0.43% of Total
same,Total Related Substances Results,"[1]; stored at 5° C., 24 months",0.44% of Total
same,Solvents Results,[2]; [6],8.8% of Total
same,Solvents Results,[2]; [7],20.6% of Total
same,Solvents Results,[2]; [8],19.3% of Total
same,Solvents Results,[2]; [9],17.2% of Total
same,Solvents Results,[2]; [10],8.9% of Total
same,Solvents Results,[2]; [11],8.8% of Total
same,Solvents Results,"[2]; stored at 5° C., 3 months",16.7% of Total
same,Solvents Results,"[2]; stored at 5° C., 6 months",8.8% of Total
same,Solvents Results,"[2]; stored at 5° C., 12 months",21.0% of Total
same,Solvents Results,"[2]; stored at 5° C., 18 months",20.8% of Total
same,Solvents Results,"[2]; stored at 5° C., 24 months",20.4% of Total
"Nc1nc2[nH]cc(CCc3ccc(C(=O)N[C@@H](CCC(=O)O)C(=O)O)cc3)c2c(=O)[nH]1 [Lot D, pemetrexed disodium]",change in the percent total related substances over time,[1]; [5],did not change significantly over time
same,change in the percent total related substances over time,[1]; [12],did not increase somewhat over time
same,Total Related Substances Results,"[1]; accelerated conditions 25° C., 60% relative humidity, 0 months",0.31% of Total
same,Total Related Substances Results,"[1]; accelerated conditions 25° C., 60% relative humidity, 1 month",0.31% of Total
same,Total Related Substances Results,"[1]; accelerated conditions 25° C., 60% relative humidity, 2 months",0.45% of Total
same,Total Related Substances Results,"[1]; accelerated conditions 25° C., 60% relative humidity, 3 months",0.40% of Total
same,Total Related Substances Results,"[1]; accelerated conditions 25° C., 60% relative humidity, 6 months",0.32% of Total
same,Total Related Substances Results,"[1]; stored at 5° C., 0 months",0.31% of Total
same,Total Related Substances Results,"[1]; stored at 5° C., 3 months",0.35% of Total
same,Total Related Substances Results,"[1]; stored at 5° C., 6 months",0.33% of Total
same,Total Related Substances Results,"[1]; stored at 5° C., 9 months",0.42% of Total
same,Total Related Substances Results,"[1]; stored at 5° C., 12 months",0.24% of Total
same,change in water content over time,[2]; [12],shows an increase in water content to the heptahydrate form
same,Solvents Results,"[2]; accelerated conditions 25° C., 60% relative humidity, 0 months, water only",8.5% of Total
same,Solvents Results,"[2]; accelerated conditions 25° C., 60% relative humidity, 1 month, water only",14.0% of Total
same,Solvents Results,"[2]; accelerated conditions 25° C., 60% relative humidity, 2 months, water only",20.5% of Total
same,Solvents Results,"[2]; accelerated conditions 25° C., 60% relative humidity, 3 months, water only",20.8% of Total
same,Solvents Results,"[2]; accelerated conditions 25° C., 60% relative humidity, 6 months, water only",21.2% of Total
same,Solvents Results,[2]; [11],8.5% of Total
same,Solvents Results,"[2]; stored at 5° C., 3 months",14.0% of Total
same,Solvents Results,"[2]; stored at 5° C., 6 months",18.2% of Total
same,Solvents Results,"[2]; stored at 5° C., 9 months",21.1% of Total
same,Solvents Results,"[2]; stored at 5° C., 12 months",21.7% of Total
